Earlier results as cited in patent publication US4312857A, “Novel derivatives of beta-endorphin, intermediates therefor and compositions and methods employing said derivatives” (The United States of America as represented by the Veterans, priority 1977, dated 1982).

Legend:
rat = settings: injected directly into the brain of the rat
[1] = test system: partially purified brain opiate receptor sites

For “H-Tyr-Gly-Gly-Phe-Met-OH [methionine enkephalin]”, the analgesic effect (rat) is given as “weak analgesic agent of short duration” and the “binding to partially purified brain opiate receptor sites” value [1] is given as “binds stereo-specifically”.
